Results taken from patent US9192559B2, “Compositions” (Givaudan SA, priority 2006, dated 2015).

Legend:
[1] = system: A. niger spores; assay: Activity against A. niger spores in skin cream Cremor basalis; assay type: cell-based, Aspergillus niger
Procedure: (§1) A preservative-free oil-in-water emulsion skin cream is used. Test samples of cream are made up to contain different amounts of diol compounds and/or benzaldehyde derivatives. The diol compound and the benzaldehyde derivatives is added to an aliquot of 10 g of the cream in 50 ml tubes in a concentration as shown in the table below. After addition of the preservative/preservative enhancer, the cream is thoroughly mixed to achieve a homogeneous distribution. The cream is then stored for 1-3 days to equilibrate at room temperature (in order to achieve a homogenous partitioning of compounds between oil and water phase).
(§2) For testing of sporicidal effect, to each sample 100 μl of a spore suspension of Aspergillus niger ATCC 16404 containing 3×10^7 spores/ml (prepared as described in example 1) is added.
(§3) After regular test intervals, samples of 1 g cream are removed and added to 20 ml of a neutralizer solution containing 0.2% lecithin, 2% Tween 80 and 0.5% NaCl. These dilutions are vigorously shaken for 10 min until the cream is dissolved, and then aliquots of this solution are spread plated on potato dextrose agar containing 0.2% Tween 80. After 48 h to 72 h the number of surviving colony forming units (and therefore surviving spores) are counted.
The example is performed as described in example 2 except for the following changes:
The preservative-free cosmetic cream for application to the human skin is Cremor basalis (commercially available from Fagron GmbH, Barsbüttel, Germany).

[2] = system: Aspergillus niger ATCC 16404 spores; assay: Sporicidal effect of test compounds in water; assay type: cell-based; settings: 0.1% test compound in water; for Sporicidal effect (reduction of spore counts), in words: 7 days
Procedure: Aspergillus niger ATCC 16404 spores are added to water to obtain a density of 3×10^5 spores/ml.
In order to prepare the spores, the test strain is grown for 5 days on potato dextrose agar at room temperature. The spores are harvested with a solution containing 0.1% Tween 80, peptone 0.1% and NaCl 0.85% and the spore concentration is adjusted to the density indicated above.
Test compounds are dissolved in dipropyleneglycol to a concentration of 20%.
These stock solutions are added to 10 ml aliquots of the spore suspension to obtain a final concentration of the test compounds of 0.1%. The sporicidal effect is shown by a reduction of spore counts after 7 days.
The reduction factor is determined as follows. Aliquots of the above prepared suspension of microorganisms (here: spore suspension prepared as described above) are plated on a suitable agar medium (see above) and the developing colonies are counted both for samples with test compound and for a negative probe (water). The count of the negative control is divided by the count of the test compound and thereby the reduction factor is determined. A negative control (water) accordingly has a reduction factor of 1 (no effect on the microorganism).

[3] = system: Aspergillus niger ATCC 16404 spores; assay: Sporicidal activity in a preservative-free oil-in-water emulsion skin cream; assay type: cell-based; settings: 0.1% 4-hydroxybenzaldehyde, 0% diol, listed as benzaldehyde derivative
Procedure: as §1, §2, §3
The count of the negative control is divided by the count of the probe and thereby the reduction factor is determined.

CCCCCCC(O)CO (centres unmarked) [1,2-Octandiol, 1,2-octanediol]
Reduction factor fungal spores, 7d ([1]; preservative 0.25%, no 4-HBA): 2.2

CC(CO)CO [2-Methyl-1,3-propandiol, 2-Methyl-1,3-propanediol]
Reduction factor fungal spores, 7d ([1]; preservative 2%, no 4-HBA): 3.3
Reduction factor fungal spores, 7d ([1]; preservative 4%, no 4-HBA): 25.9

CCCCC(CC)COCC(O)CO (centres unmarked) [3-(2-ethyl-hexyloxy)-1,2-propandiol, 3-(2-ethylhexyloxy)propane-1,2-diol]
Reduction factor fungal spores, 7d ([1]; preservative 0.25%, no 4-HBA): 3.9
Reduction factor fungal spores, 7d ([1]; preservative 0.5%, no 4-HBA): 57.6

O=Cc1ccc(O)cc1 [4-hydroxybenzaldehyde]
Sporicidal effect (reduction of spore counts), in words [2]: No significant reduction of spore counts
reduction factor 7d fungal spores [3]: no sporicidal effect
Reduction factor fungal spores, 7d ([1]; 0.5% 4-hydroxybenzaldehyde on its own): 57.6
Reduction factor fungal spores, 7d ([1]; no added diol, 0.125% 4-HBA): 5.5

COc1ccc(C=O)cc1 [4-methoxy-benzaldehyde]
Sporicidal effect (reduction of spore counts), in words [2]: No significant reduction of spore counts

C=CCCCCCCCCO [9-decenol]
Sporicidal effect (reduction of spore counts), in words [2]: significant sporicidal effect

CC(C)c1ccc(CO)cc1 [Cuminic alcohol]
Spores/ml ([2]; after 7 days): >1.2 × 10^5 Spores/ml
Reduction factor ([2]; after 7 days, count of negative control / count of test compound): <2

CC(CC=O)CCc1ccccc1 (centres unmarked) [Mefranal, 3-methyl-5-phenylpentanal]
Sporicidal effect (reduction of spore counts), in words [2]: significant sporicidal effect
